Source: US20060241123A1, “Substituted piperidine and piperazine derivatives as melanocortin-4 receptor modulators” (priority 2003, published 2006)
Read-outs that look alike come from different tables or passages of the source.

Key:
hMC4-R [1] = target: T1, hMC4-R (Homo sapiens, UniProt P32245); assay: Membrane binding assay, fluorescence polarization, fluorescence labeled NDP-alpha-MSH; conditions: HEK293 cell membrane preparations
T1 construct: expressed in transfected cells; host or cells: HEK293 cells
T1 sequence (P32245 whole entry): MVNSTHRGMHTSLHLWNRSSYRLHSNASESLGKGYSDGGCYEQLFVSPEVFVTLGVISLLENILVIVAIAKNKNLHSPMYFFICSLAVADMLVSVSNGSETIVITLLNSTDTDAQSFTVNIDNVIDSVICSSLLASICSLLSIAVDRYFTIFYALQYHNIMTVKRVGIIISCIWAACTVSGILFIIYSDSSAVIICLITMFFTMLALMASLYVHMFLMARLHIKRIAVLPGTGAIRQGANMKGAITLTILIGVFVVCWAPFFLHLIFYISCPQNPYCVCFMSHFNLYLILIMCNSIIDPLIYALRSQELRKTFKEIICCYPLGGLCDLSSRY
Description: A membrane binding assay is used to identify competitive inhibitors of fluorescence labeled NDP-alpha-MSH binding to HEK293 cell membrane preparations expressing human melanocortin receptors.
The test compound or unlabeled NDP-alpha-MSH is dispensed at varying concentrations to a 384 well microtiter plate. Fluorescence labeled NDP-alpha-MSH is dispensed at a single concentration, followed by addition of membrane preparations. The plate is incubated for 5 h at room temperature.
The degree of fluorescence polarization is determined with a fluorescence polarization microplate reader.

hMC4-R [2] = target: T1, hMC4-R; assay: Functional cellular cAMP assay, fluorescence polarization, HEK293 cells; format: cell-based; conditions: for % activation functional assay: compared to stimulation with NDP-alpha-MSH; for EC50: cAMP production
Description: A functional cellular assay, based on competition between unlabeled CAMP and a fixed quantity of fluorescence labeled cAMP for a limited number of binding sites on a cAMP specific antibody, is used to discriminate melanocortin receptor agonists from antagonists by fluorescence polarization.
HEK293 cells expressing one of the human melanocortin receptors are transferred to 384 well microtiter plates, an appropriate amount of cAMP antibody is added, followed by the addition of different concentrations of the test compound to effect cAMP production. Cells are lysed and a fluorescence labeled cAMP conjugate is dispensed. The plate is read on a fluorescence polarization microplate reader and the amount of cAMP produced as a response to a test compound is compared to the production of cAMP resulting from stimulation with NDP-alpha-MSH. […]

male Wistar rats [3] = assay: Spontaneous feeding paradigm, food intake in rats; format: in vivo, rat; conditions: for increase in cumulative food intake: compared to vehicle
Description: Food intake in rats is measured after i.p. or p.o. administration of the test compound (see e.g. Chen, A. S. et al. Transgenic Res 2000 April; 9(2):145-54).
Selected Examples of the present invention were active in the rat model at 3, 10 or 30 mg/kg after i.p. and p.o. administration of the test compound, respectively, using male Wistar rats (n=4−6).

male Wistar rats [4] = assay: Lipopolysaccharide-induced cachexia in rats (acute model); format: in vivo, rat
Description: Prevention or amelioration of cachexia induced by either lipopolysaccharide (LPS) administration or by tumor growth is determined upon i.p. or p.o. administration of test compounds to rats (see e.g. Marks, D. L.; Ling, N and Cone, R. D. Cancer Res 2001 Feb. 15; 61 (4): 1432-8).
1-2 Hours prior to the onset of the dark-phase, individually housed, male Wistar rats (200-300 g) receive an ip or po application of test-compound or vehicle (2 ml/kg, 1-30 mg/kg) which is followed or preceded by an ip injection of either lipopolysaccharide (LPS) or saline (2 ml/kg, 100 μg/kg). Food intake, water intake and body weight are measured at 1-24 hour intervals and differences between experimental groups are evaluated.

melanocortin-4 receptor [5] = target: T2, melanocortin-4 receptor (Homo sapiens, UniProt P32245); conditions: cited from earlier work; for % stimulation: Bioorg. Med. Chem. Lett. 2003, 13, 3793-3796
T2 sequence (P32245 whole entry): as above

rat = conditions: i.v. or p.o.; WO0074679; cited from earlier work
[6] = J. Med. Chem. 2002, 45, 4589-4593; cited from earlier work
melanocortin-4 receptor [7] = target: T2, melanocortin-4 receptor; conditions: cited from earlier work
[8] = 3 mg/kg p.o., 4 hours following administration
[9] = 3 mg/kg p.o., 6 hours following administration
[10] = 3 mg/kg p.o., 7 hours following administration
[11] = read-out: EC50 activation of melanocortin-4 receptor, our assay system

With CS(=O)(=O)N1CC2(CCN(C(=O)[C@@H](Cc3ccc(Cl)cc3)NC(=O)c3cc(=O)c4ccccc4o3)CC2)c2ccccc21 [Example 1] the IC50 (hMC4-R [1]) was 80 nM, the “activation of the melanocortin-4 receptor in the functional assay” value (shortened to “activation … in the functional assay”) (hMC4-R [2]) was “does not activate” and the “% activation functional assay” value (hMC4-R [2]) was “no activation”.
With CS(=O)(=O)Nc1ccccc1N1CCN(C(=O)[C@@H](Cc2ccc(Cl)cc2)NC(=O)c2cc(=O)c3ccccc3o2)CC1 [Example 8] the IC50 (hMC4-R [1]) was 300 nM, the “activation … in the functional assay” value (hMC4-R [2]) was “does not activate” and the “% activation functional assay” value (hMC4-R [2]) was “no activation”.
For O=C(N[C@H](Cc1ccc(Cl)cc1)C(=O)N1CCC(Cn2cncn2)(C2CCCCC2)CC1)c1cc(=O)c2ccccc2o1 [Example 15], the IC50 (hMC4-R [1]) was 4.4 nM, the EC50 (hMC4-R [2]; read-out: hMC4-R functional assay EC50/nM) was 700 nM and the “% activation functional assay” value (hMC4-R [2]) was 40%. The “food intake in spontaneous feeding paradigm” value (male Wistar rats [3]; 3 mg/kg p.o.) was “significantly increase in food intake”, the “increase in cumulative food intake” value (male Wistar rats [3]; [8]) was 290% and the “increase in cumulative food intake” value (male Wistar rats [3]; [9]) was 186%. For the same compound, the “increase in cumulative food intake” value (male Wistar rats [3]; [10]) was 355%.
With CC(C)(C)NC(=O)C1(C2CCCCC2)CCN(C(=O)[C@@H](Cc2ccc(Cl)cc2)NC(=O)c2cc(=O)c3ccccc3o2)CC1 [Example 66] the IC50 (hMC4-R [1]) was 6.8 nM, the “activation … in the functional assay” value (hMC4-R [2]) was “no activation” and the “% activation functional assay” value (hMC4-R [2]) was “no activation”. For the same compound, the “food intake in spontaneous feeding paradigm” value (male Wistar rats [3]; 3 mg/kg p.o.) was “significant increase in food intake”, the “increase in cumulative food intake” value (male Wistar rats [3]; 3 mg/kg p.o., 2 hours following administration) was 410% and the “increase in cumulative food intake” value (male Wistar rats [3]; [8]) was 500%. For the same compound, the “increase in cumulative food intake” value (male Wistar rats [3]; [9]) was 186%, the “increase in cumulative food intake” value (male Wistar rats [3]; [10]) was 272% and the “cumulative food intake in LPS-induced cachexia” value (male Wistar rats [4]; 10 mg/kg p.o.) was “significant increase in cumulative food intake”. For the same compound, the “increase in cumulative food intake” value (male Wistar rats [4]; 10 mg/kg p.o. in combination with LPS, 4 hours following administration, compared to LPS and vehicle) was 148%.
For CS(=O)(=O)NCc1ccccc1N1CCN(C(=O)[C@@H](Cc2ccc(Cl)cc2)NC(=O)c2cc(=O)c3ccccc3o2)CC1 [Example 110], the IC50 (hMC4-R [1]) was 790 nM, the “activation … in the functional assay” value (hMC4-R [2]) was “does not activate” and the “% activation functional assay” value (hMC4-R [2]) was “no activation”.
With O=C(N[C@H](Cc1ccc(Cl)cc1)C(=O)N1CCN(c2ccccc2C(=O)N2CCCCC2)CC1)c1cc(=O)c2ccccc2o1 [Example 113] the “increase in cumulative food intake” value (male Wistar rats [3]; 30 mg/kg p.o., 2 hours following administration) was 192%, the “increase in cumulative food intake” value (male Wistar rats [3]; 30 mg/kg p.o., 4 hours following administration) was 159% and the “increase in cumulative food intake” value (male Wistar rats [3]; 30 mg/kg p.o., 6 hours following administration) was 191%. The “increase in cumulative food intake” value (male Wistar rats [3]; 30 mg/kg p.o., 7 hours following administration) was 200%.
For CS(=O)(=O)N1CC2(CCN(C(=O)C[C@@H](Cc3ccc(Cl)cc3)NC(=O)[C@H]3Cc4ccccc4CN3)CC2)c2ccccc21.Cl [Example 212], the “increase in cumulative food intake” value (male Wistar rats [3]; 10 mg/kg i.p., 2 hours following administration) was 708%, the “increase in cumulative food intake” value (male Wistar rats [3]; 10 mg/kg i.p., 4 hours following administration) was 725% and the “increase in cumulative food intake” value (male Wistar rats [3]; 10 mg/kg i.p., 6 hours following administration) was 224%. The “increase in cumulative food intake” value (male Wistar rats [3]; 10 mg/kg i.p., 8 hours following administration) was 167%.
In the case of O=C(NC(Cc1ccc(Cl)cc1)C(=O)N1CCC(Cn2cncn2)(C2CCCCC2)CC1)C1Cc2ccccc2CN1 (stereo not drawn) [WO0074679, example 2], the “% activation functional assay” value (hMC4-R [2]) is given as 102%, the “melanocortin-4 receptor activation” value (melanocortin-4 receptor [5]; at 10 μM, J. Med. Chem. 2002, 45, 4589-4593) is given as “activate the melanocortin-4 receptor” and the “in vivo activity in reflexogenic erections model” value (rat) is given as “in vivo agonist”. For the same compound, the “food intake” value [6] was “significantly reduced”.
In the case of CS(=O)(=O)NCc1ccccc1N1CCN(C(=O)C(Cc2ccc(Cl)cc2)NC(=O)C2Cc3ccccc3CN2)CC1 (stereo not drawn) [WO02059108, example 56], the Ki (melanocortin-4 receptor [7]; J. Med. Chem. 2004, 47, 744-755) is listed as 210 nM and the EC50 (melanocortin-4 receptor [5]; J. Med. Chem. 2004, 47, 744-755, read-out: EC50 activation of melanocortin-4 receptor) is listed as 48 nM.
For CS(=O)(=O)Nc1ccccc1N1CCN(C(=O)[C@@H](Cc2ccc(Cl)cc2)NC(=O)[C@H]2Cc3ccccc3CN2)CC1 [WO03009850, example 1, reference compound], the EC50 (hMC4-R [2]; [11]) is listed as 3700 nM, the “% activation functional assay” value (hMC4-R [2]) is listed as 96% and the “% stimulation” value (melanocortin-4 receptor [5]) is listed as 100%.
For CS(=O)(=O)N1CC2(CCN(C(=O)[C@@H](Cc3ccc(Cl)cc3)NC(=O)[C@H]3Cc4ccccc4CN3)CC2)c2ccccc21 [WO9964002, example 13, reference compound], the IC50 (hMC4-R [1]) was 54 nM, the EC50 (hMC4-R [2]; [11]) was 1100 nM and the “% activation functional assay” value (hMC4-R [2]) was 110%. The Ki (melanocortin-4 receptor [7]; Current Topics Med. Chem. 2003, 3, 855-883) was 10 nM and the “% stimulation” value (melanocortin-4 receptor [5]) was 100%.
